# Test results from US20200024278A1, “COMPOSITION COMPRISING ANTIBIOTIC COMPOUND AND AN HETEROCYCLIC COMPOUND AND THEIR USE IN PREVENTING OR TREATING BACTERIAL INFECTIONS” (MUTABILIS, priority 2016, published 2020).
# Legend:
# Experiment in all cases: MIC, broth microdilution (CLSI), substance alone or ATB combined with compound at 4 or 8 μg/mL
# ECO 190317 = format: cell-based, E. coli; settings: ECO 190317
# Procedure, shortened: (§1)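 CLSI broth microdilution in cation-adjusted Mueller-Hinton broth, 5·10^5 CFU/mL log-phase inoculum, 16-20 h at 35 °C in ambient air. Fosfomycin assays supplemented with 25 μg/ml glucose-6-phosphate.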
# ECO UFR39 = format: cell-based, E. coli; settings: ECO UFR39
# Procedure, shortened: as §1
# KPN 6299 = format: cell-based, K. pneumoniae
# Procedure, shortened: as §1
# KPN BAA-1898 = format: cell-based, K. pneumoniae; settings: KPN BAA-1898
# Procedure, shortened: as §1
# KPN UFR42 = format: cell-based, K. pneumoniae; settings: KPN UFR42
# Procedure, shortened: as §1
# ECL P99 = format: cell-based, E. cloacae; settings: ECL P99
# Procedure, shortened: as §1
# [1] = Escherichia coli, antibiotic alone, read-out: MIC ATB alone
# [2] = Klebsiella pneumoniae, antibiotic alone, read-out: MIC ATB alone
compound,measurement,setting,value
"NCC[C@H](O)C(=O)N[C@@H]1C[C@H](N)[C@@H](O[C@H]2O[C@H](CN)[C@@H](O)[C@H](O)[C@H]2O)[C@H](O)[C@H]1O[C@H]1O[C@H](CO)[C@@H](O)[C@H](N)[C@H]1O [AN, Amikacin, reference compound]",MIC ATB combined with Example 1 @8 μg/ml,ECO 190317; with Example 1 @8 μg/ml,<0.031 µg/mL
same,MIC ATB combined with Example 1 @8 μg/ml,ECO 190317; with Example 1 at 8 μg/ml,<0.031 µg/mL
same,MIC ATB combined with Example 7 @8 μgml,ECO 190317; with Example 7 at 8 μg/ml,<0.031 µg/mL
same,MIC ATB combined with Example 9 @4 μg/ml,ECO 190317; with Example 9 @4 μg/ml,<0.031 µg/mL
same,MIC ATB combined with Example 9 @4 μg/ml,ECO 190317; with Example 9 at 4 μg/ml,<0.031 µg/mL
same,MIC ATB combined with Example 11 @8 μg/ml,ECO 190317; with Example 11 at 8 μg/ml,<0.031 µg/mL
same,MIC ATB combined with Example 12 @8 μg/ml,ECO 190317; with Example 12 at 8 μg/ml,<0.031 µg/mL
same,MIC ATB combined with Example 13 @8 μg/ml,ECO 190317; with Example 13 at 8 μg/ml,<0.031 µg/mL
same,MIC ATB combined with Example 14 @8 μg/ml,ECO 190317; with Example 14 at 8 μg/ml,<0.031 µg/mL
same,MIC ATB combined with Example 15 @4 μgml,ECO 190317; with Example 15 at 4 μg/ml,<0.031 µg/mL
same,MIC ATB combined with Example 16 @4 μg/ml,ECO 190317; with Example 16 at 4 μg/ml,<0.031 µg/mL
same,MIC,ECO 190317; [1],8 µg/mL
same,MIC ATB combined with Example 1 @8 μg/ml,ECO UFR39; with Example 1 @8 μg/ml,<=0.031 μg/mL
same,MIC ATB combined with Example 1 @8 μg/ml,ECO UFR39; with Example 1 at 8 μg/ml,<=0.031 μg/mL
same,MIC ATB combined with Example 7 @8 μgml,ECO UFR39; with Example 7 at 8 μg/ml,<0.031 µg/mL
same,MIC ATB combined with Example 9 @4 μg/ml,ECO UFR39; with Example 9 @4 μg/ml,<0.031 µg/mL
same,MIC ATB combined with Example 9 @4 μg/ml,ECO UFR39; with Example 9 at 4 μg/ml,<0.031 µg/mL
same,MIC ATB combined with Example 11 @8 μg/ml,ECO UFR39; with Example 11 at 8 μg/ml,<0.031 µg/mL
same,MIC ATB combined with Example 12 @8 μg/ml,ECO UFR39; with Example 12 at 8 μg/ml,<0.031 µg/mL
same,MIC ATB combined with Example 13 @8 μg/ml,ECO UFR39; with Example 13 at 8 μg/ml,0.063 µg/mL
same,MIC ATB combined with Example 14 @8 μg/ml,ECO UFR39; with Example 14 at 8 μg/ml,<0.031 µg/mL
same,MIC ATB combined with Example 15 @4 μgml,ECO UFR39; with Example 15 at 4 μg/ml,<0.031 µg/mL
same,MIC ATB combined with Example 16 @4 μg/ml,ECO UFR39; with Example 16 at 4 μg/ml,<0.031 µg/mL
same,MIC,ECO UFR39; [1],> 32 µg/mL
same,MIC,KPN 6299; [2],16 µg/mL
same,MIC ATB combined with Example 1 @8 μg/ml,KPN 6299; with Example 1 @8 μg/ml,16 µg/mL
same,MIC ATB combined with Example 1 @8 μg/ml,KPN 6299; with Example 1 at 8 μg/ml,16 µg/mL
same,MIC ATB combined with Example 7 @8 μgml,KPN 6299; with Example 7 at 8 μg/ml,2 µg/mL
same,MIC ATB combined with Example 9 @4 μg/ml,KPN 6299; with Example 9 @4 μg/ml,<0.031 µg/mL
same,MIC ATB combined with Example 9 @4 μg/ml,KPN 6299; with Example 9 at 4 μg/ml,<0.031 µg/mL
same,MIC ATB combined with Example 11 @8 μg/ml,KPN 6299; with Example 11 at 8 μg/ml,<0.031 µg/mL
same,MIC ATB combined with Example 12 @8 μg/ml,KPN 6299; with Example 12 at 8 μg/ml,<0.031 µg/mL
same,MIC ATB combined with Example 13 @8 μg/ml,KPN 6299; with Example 13 at 8 μg/ml,4 µg/mL
same,MIC ATB combined with Example 14 @8 μg/ml,KPN 6299; with Example 14 at 8 μg/ml,<0.031 µg/mL
same,MIC ATB combined with Example 15 @4 μgml,KPN 6299; with Example 15 at 4 μg/ml,<=0.031 μg/mL
same,MIC ATB combined with Example 16 @4 μg/ml,KPN 6299; with Example 16 at 4 μg/ml,<0.031 µg/mL
same,MIC ATB combined with Example 1 @8 μg/ml,KPN BAA-1898; with Example 1 @8 μg/ml,0.25 µg/mL
same,MIC ATB combined with Example 1 @8 μg/ml,KPN BAA-1898; with Example 1 at 8 μg/ml,0.25 µg/mL
same,MIC ATB combined with Example 7 @8 μgml,KPN BAA-1898; with Example 7 at 8 μg/ml,0.125 µg/mL
same,MIC ATB combined with Example 9 @4 μg/ml,KPN BAA-1898; with Example 9 @4 μg/ml,<0.031 µg/mL
same,MIC ATB combined with Example 9 @4 μg/ml,KPN BAA-1898; with Example 9 at 4 μg/ml,<0.031 µg/mL
same,MIC ATB combined with Example 11 @8 μg/ml,KPN BAA-1898; with Example 11 at 8 μg/ml,<0.031 µg/mL
same,MIC ATB combined with Example 12 @8 μg/ml,KPN BAA-1898; with Example 12 at 8 μg/ml,<0.031 µg/mL
same,MIC ATB combined with Example 13 @8 μg/ml,KPN BAA-1898; with Example 13 at 8 μg/ml,0.25 µg/mL
same,MIC ATB combined with Example 14 @8 μg/ml,KPN BAA-1898; with Example 14 at 8 μg/ml,<0.031 µg/mL
same,MIC ATB combined with Example 15 @4 μgml,KPN BAA-1898; with Example 15 at 4 μg/ml,<=0.031 μg/mL
same,MIC ATB combined with Example 16 @4 μg/ml,KPN BAA-1898; with Example 16 at 4 μg/ml,<0.031 µg/mL
same,MIC,"KPN BAA-1898; Klebsiella pneumoniae, BAA1898, antibiotic alone, read-out: MIC ATB alone",1 µg/mL
same,MIC ATB combined with Example 1 @8 μg/ml,KPN UFR42; with Example 1 @8 μg/ml,>32 µg/mL
same,MIC ATB combined with Example 1 @8 μg/ml,KPN UFR42; with Example 1 at 8 μg/ml,>32 µg/mL
same,MIC ATB combined with Example 7 @8 μgml,KPN UFR42; with Example 7 at 8 μg/ml,>32 µg/mL
same,MIC ATB combined with Example 9 @4 μg/ml,KPN UFR42; with Example 9 @4 μg/ml,>32 µg/mL
same,MIC ATB combined with Example 9 @4 μg/ml,KPN UFR42; with Example 9 at 4 μg/ml,>32 µg/mL
same,MIC ATB combined with Example 11 @8 μg/ml,KPN UFR42; with Example 11 at 8 μg/ml,0.25 µg/mL
same,MIC ATB combined with Example 12 @8 μg/ml,KPN UFR42; with Example 12 at 8 μg/ml,<0.031 µg/mL
same,MIC ATB combined with Example 13 @8 μg/ml,KPN UFR42; with Example 13 at 8 μg/ml,>32 µg/mL
same,MIC ATB combined with Example 14 @8 μg/ml,KPN UFR42; with Example 14 at 8 μg/ml,<0.031 µg/mL
same,MIC ATB combined with Example 15 @4 μgml,KPN UFR42; with Example 15 at 4 μg/ml,>32 µg/mL
same,MIC ATB combined with Example 16 @4 μg/ml,KPN UFR42; with Example 16 at 4 μg/ml,<0.031 µg/mL
same,MIC,KPN UFR42; [2],> 32 µg/mL
same,MIC ATB combined with Example 1 @8 μg/ml,ECL P99; with Example 1 @8 μg/ml,<0.031 µg/mL
same,MIC ATB combined with Example 1 @8 μg/ml,ECL P99; with Example 1 at 8 μg/ml,<0.031 µg/mL
same,MIC ATB combined with Example 7 @8 μgml,ECL P99; with Example 7 at 8 μg/ml,0.063 µg/mL
same,MIC ATB combined with Example 9 @4 μg/ml,ECL P99; with Example 9 @4 μg/ml,<0.031 µg/mL
same,MIC ATB combined with Example 9 @4 μg/ml,ECL P99; with Example 9 at 4 μg/ml,<0.031 µg/mL
same,MIC ATB combined with Example 11 @8 μg/ml,ECL P99; with Example 11 at 8 μg/ml,<0.031 µg/mL
same,MIC ATB combined with Example 12 @8 μg/ml,ECL P99; with Example 12 at 8 μg/ml,<0.031 µg/mL
